From ChEMBL document CHEMBL4321783, “Recent Progress in Natural-Product-Inspired Programs Aimed To Address Antibiotic Resistance and Tolerance” (J Med Chem, 2019)
≈ marks a conversion by molar mass, not a printed value.

Legend:
[1] = test system: Pseudomonas aeruginosa; assay: Growth inhibition of Pseudomonas aeruginosa PA14 after 24 hrs; assay type: functional, organism-based; settings: PA14, 24 h
[2] = test system: Acinetobacter baumannii; assay: Antibacterial activity against Acinetobacter baumannii ATCC 19606 by broth microdilution method; assay type: functional; settings: ATCC 19606 = CIP 70.34 = JCM 6841
[3] = test system: Streptococcus pneumoniae; assay: Antibacterial activity against Streptococcus pneumoniae ATCC 49619 by broth microdilution method; assay type: functional
[4] = test system: Pseudomonas aeruginosa; assay: Antibacterial activity against Pseudomonas aeruginosa ATCC 27853 by broth microdilution method; assay type: functional
[5] = test system: Streptococcus pneumoniae; assay: Antibacterial activity against Streptococcus pneumoniae UNT-042 expressing ermB/mefA by broth microdilution method; assay type: functional
[6] = test system: Staphylococcus aureus; assay: Antibacterial activity against Staphylococcus aureus BAA-977 expressing iermA by broth microdilution method; assay type: functional
[7] = test system: Enterococcus faecalis; assay: Antibacterial activity against Enterococcus faecalis UNT-047 expressing ermB by broth microdilution method; assay type: functional
[8] = test system: Enterococcus faecalis; assay: Antibacterial activity against Enterococcus faecalis ATCC 29212 by broth microdilution method; assay type: functional
[9] = test system: Staphylococcus aureus; assay: Antibacterial activity against methicillin-resistant Staphylococcus aureus NRS384 expressing MsrA by broth microdilution method; assay type: functional
[10] = test system: Staphylococcus aureus; assay: Antibacterial activity against Staphylococcus aureus ATCC 29213 by broth microdilution method; assay type: functional
[11] = test system: Escherichia coli; assay: Antibacterial activity against Escherichia coli 121 after 20 hrs by CLSI-based microdilution method; assay type: functional; settings: O157:H7 str. 121, 20 h
[12] = test system: Staphylococcus aureus; assay: Antibacterial activity against methicillin-resistant Staphylococcus aureus 757 after 20 hrs by CLSI-based microdilution method; assay type: functional; settings: Staphylococcus aureus, 757, 20 h
[13] = test system: Enterococcus faecium; assay: Antibacterial activity against […] Enterococcus faecium 1092 after 20 hrs by CLSI-based microdilution method; assay type: functional; settings: Enterococcus faecium, 1092, 20 h
[14] = test system: Staphylococcus aureus; assay: Antibacterial activity against methicillin-resistant Staphylococcus aureus 2011 after 20 hrs by CLSI-based microdilution method; assay type: functional; settings: Staphylococcus aureus, 2011, 20 h
[15] = test system: Streptococcus pneumoniae; assay: Antibacterial activity against Streptococcus pneumoniae 911 after 20 hrs by CLSI-based microdilution method; assay type: functional; settings: Streptococcus pneumoniae, 911, 20 h
[16] = test system: Escherichia coli; assay: Antibacterial activity against Escherichia coli 2271 after 20 hrs by CLSI-based microdilution method; assay type: functional; settings: Escherichia coli, 2271, 20 h
[17] = test system: Haemophilus influenzae; assay: Antibacterial activity against Haemophilus influenzae 1244 after 20 hrs by CLSI-based microdilution method; assay type: functional; settings: Haemophilus influenzae, 1244, 20 h
[18] = test system: Staphylococcus aureus; assay: Antibacterial activity against Staphylococcus aureus ATCC 25923 after 16 to 20 hrs by CLSI protocol based broth microdilution method; assay type: functional
[19] = test system: Staphylococcus epidermidis; assay: Antibacterial activity against Staphylococcus epidermidis ATCC 12228 after 16 to 20 hrs by CLSI protocol based broth microdilution method; assay type: functional

## CCCCCC[C@H](CCCCC[C@@H](O)C(N)=O)OC(=O)[C@@H]1CCCCN1C(=O)c1ccccc1O
[1]
  IC50: > 250 µM

## CCCCCC[C@H](CCCCC[C@H](O)C(N)=O)OC(=O)[C@@H]1CC=CN1C(=O)c1ccccc1O
[1]
  IC50: 5 µM

## CCCCCC[C@H](CCCCCCC(N)=O)OC(=O)[C@@H]1CC=CN1C(=O)c1ccccc1O
[1]
  IC50: 0.035 µM

## CC[C@H]1OC(=O)[C@H](C)C(=O)[C@H](C)[C@@H](O[C@@H]2O[C@H](C)C[C@H](N(C)C)[C@H]2O)[C@](C)(OC)C[C@@H](C)CN[C@H](C)[C@@H]2N(CCCCn3cc(-c4cccc(N)c4)nn3)C(=O)O[C@@]21C
[2]
  MIC: 4 µg/mL (≈ 4.83 µM)
[3]
  MIC: ≤ 0.03 µg/mL
[4]
  MIC: 64 µg/mL (≈ 77.3 µM)
[5]
  MIC: 2 µg/mL (≈ 2.42 µM)
[6]
  MIC: 0.5 µg/mL (≈ 0.604 µM)
[7]
  MIC: > 64 µg/mL
[8]
  MIC: 0.125 µg/mL (≈ 0.151 µM)
[9]
  MIC: 1 µg/mL (≈ 1.21 µM)
[10]
  MIC: 0.5 µg/mL (≈ 0.604 µM)

## CO[C@]1(C)C[C@@H](C)CN[C@H](C)[C@@H]2N(CCCCn3cc(-c4cccc(N)c4)nn3)C(=O)O[C@]2(C)[C@@H](CCF)OC(=O)[C@H](C)C(=O)[C@H](C)[C@H]1O[C@@H]1O[C@H](C)C[C@H](N(C)C)[C@H]1O
[2]
  MIC: 4 µg/mL (≈ 4.73 µM)
[3]
  MIC: ≤ 0.03 µg/mL
[4]
  MIC: > 64 µg/mL
[5]
  MIC: 2 µg/mL (≈ 2.36 µM)
[6]
  MIC: 1 µg/mL (≈ 1.18 µM)
[7]
  MIC: > 64 µg/mL
[8]
  MIC: 0.125 µg/mL (≈ 0.148 µM)
[9]
  MIC: 2 µg/mL (≈ 2.36 µM)
[10]
  MIC: 1 µg/mL (≈ 1.18 µM)

## CN(C)[C@@H]1C(O)=C(C(N)=O)C(=O)[C@@]2(O)C(O)=C3C(=O)c4c(O)cccc4[C@H](c4ccccc4)[C@H]3C[C@@H]12
[11]
  MIC: 8 µg/mL (≈ 16.3 µM)
[12]
  MIC: 0.5 µg/mL (≈ 1.02 µM)
[13]
  MIC: 0.5 µg/mL (≈ 1.02 µM)
[14]
  MIC: 0.12 µg/mL (≈ 0.245 µM)
[15]
  MIC: < 0.06 µg/mL
[16]
  MIC: > 16 µg/mL
[17]
  MIC: 2 µg/mL (≈ 4.08 µM)

## CC[C@H]1OC(=O)[C@H](C)[C@@H](O[C@H]2C[C@@](C)(OC)[C@@H](O)[C@H](C)O2)[C@H](C)[C@@H](O[C@@H]2O[C@H](C)C[C@H](N(C)C)[C@H]2O)[C@](C)(O)C[C@@H](C)C(=O)[C@H](C)[C@@H](O)[C@]1(C)O [ERYTHROMYCIN]
[2]
  MIC: 16 µg/mL (≈ 21.8 µM)
[3]
  MIC: 0.03 µg/mL (≈ 0.0409 µM)
[4]
  MIC: 64 µg/mL (≈ 87.2 µM)
[5]
  MIC: > 256 µg/mL
[6]
  MIC: > 256 µg/mL
[7]
  MIC: > 256 µg/mL
[8]
  MIC: 1 µg/mL (≈ 1.36 µM)
[9]
  MIC: 64 µg/mL (≈ 87.2 µM)
[10]
  MIC: 0.5 µg/mL (≈ 0.681 µM)

## Cn1c2cccc(=O)c-2nc2ccccc21 [PYOCYANIN]
[18]
  MIC: 50 µM (≈ 10.5 µg/mL)
[19]
  MIC: 50 µM (≈ 10.5 µg/mL)

## CN(C)c1c2c(c(O)c3cc(CNC(C)(C)C)ccc13)C(=O)C1=C(O)[C@]3(O)C(=O)C(C(N)=O)=C(O)[C@@H](N(C)C)[C@@H]3C[C@@H]1C2
[11]
  MIC: 1 µg/mL (≈ 1.69 µM)
[12]
  MIC: 1 µg/mL (≈ 1.69 µM)
[13]
  MIC: 0.5 µg/mL (≈ 0.844 µM)
[14]
  MIC: 0.25 µg/mL (≈ 0.422 µM)
[15]
  MIC: 0.5 µg/mL (≈ 0.844 µM)
[16]
  MIC: 1 µg/mL (≈ 1.69 µM)
[17]
  MIC: 0.25 µg/mL (≈ 0.422 µM)

## CCCCCC[C@H](CCCCC[C@@H](O)C(N)=O)NC(=O)[C@@H]1CC=CN1C(=O)c1ccccc1O
[1]
  IC50: > 250 µM

## CCCCCC[C@@H](CCCCC[C@@H](O)C(N)=O)OC(=O)[C@@H]1CC=CN1C(=O)c1ccccc1O
[1]
  IC50: 1.5 µM

## CN(C)[C@@H]1C(O)=C(C(N)=O)C(=O)[C@@]2(O)C(O)=C3C(=O)c4c(O)cccc4[C@@](C)(O)[C@H]3C[C@@H]12 [TETRACYCLINE]
[11]
  MIC: 64 µg/mL (≈ 144 µM)
[12]
  MIC: 64 µg/mL (≈ 144 µM)
[13]
  MIC: > 64 µg/mL
[14]
  MIC: 32 µg/mL (≈ 72 µM)
[15]
  MIC: 64 µg/mL (≈ 144 µM)
[16]
  MIC: 64 µg/mL (≈ 144 µM)
[17]
  MIC: 16 µg/mL (≈ 36 µM)

## c1ccc2nc3ccccc3nc2c1 [PHENAZINE]
[18]
  MIC: 6.25 µM (≈ 1.13 µg/mL)
[19]
  MIC: 6.25 µM (≈ 1.13 µg/mL)

## CC[C@H]1OC(=O)[C@@](C)(F)C(=O)[C@H](C)[C@@H](O[C@@H]2O[C@H](C)C[C@H](N(C)C)[C@H]2O)[C@](C)(OC)C[C@@H](C)C(=O)[C@H](C)[C@@H]2N(CC#CCn3cc(-c4cccc(N)n4)nn3)C(=O)O[C@@]21C
[2]
  MIC: 2 µg/mL (≈ 2.38 µM)
[3]
  MIC: ≤ 0.03 µg/mL
[4]
  MIC: 16 µg/mL (≈ 19 µM)
[5]
  MIC: ≤ 0.03 µg/mL
[6]
  MIC: 0.06 µg/mL (≈ 0.0713 µM)
[7]
  MIC: 1 µg/mL (≈ 1.19 µM)
[8]
  MIC: 0.03 µg/mL (≈ 0.0356 µM)
[9]
  MIC: 0.06 µg/mL (≈ 0.0713 µM)
[10]
  MIC: 0.06 µg/mL (≈ 0.0713 µM)

## CCCCCC[C@@H](CCCCC[C@H](O)C(N)=O)OC(=O)[C@@H]1CC=CN1C(=O)c1ccccc1O
[1]
  IC50: 8 µM

## CCCCCC[C@H](CCCCC[C@@H](O)C(N)=O)OC(=O)[C@@H]1CC(F)=CN1C(=O)c1ccccc1O
[1]
  IC50: 0.019 µM
